Test results published in US10030016B2 (Sunesis Pharmaceuticals, Inc., priority 2009, dated 2018).
Read-outs that look alike come from different tables or passages of the source.

Tests used:
[1] = tested on: phospho-akt (Thr308) in PC-3 cells; test: Inhibition of phospho-akt (Thr308) in PC-3 cells, MSD phospho-akt 308 ELISA kit; type: cell-based; conditions: inhibition of P308 Akt in PC-3 cells using MSD, 2 hours, no serum, read-out: EC50
Procedure, shortened: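 Electrochemiluminescent MSD ELISA of Thr308-phosphorylated Akt after a 2 h serum-free compound exposure of PC-3 cells (15,000/well, plated overnight). Controls: DMSO (high), 5 μM wortmannin (low). Lysate binding overnight at 4 °C; detection antibody 1 h at room temperature.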

PDK1 = PDK1 (Homo sapiens (Human), UniProt O15530); test: PDK1 kinase assay (coupled PDK1/AKT/FAM-crosstide assay, IMAP fluorescence polarization); type: biochemical; conditions: inhibition of PDK1 in vitro
PDK1, sequence (O15530 51-359): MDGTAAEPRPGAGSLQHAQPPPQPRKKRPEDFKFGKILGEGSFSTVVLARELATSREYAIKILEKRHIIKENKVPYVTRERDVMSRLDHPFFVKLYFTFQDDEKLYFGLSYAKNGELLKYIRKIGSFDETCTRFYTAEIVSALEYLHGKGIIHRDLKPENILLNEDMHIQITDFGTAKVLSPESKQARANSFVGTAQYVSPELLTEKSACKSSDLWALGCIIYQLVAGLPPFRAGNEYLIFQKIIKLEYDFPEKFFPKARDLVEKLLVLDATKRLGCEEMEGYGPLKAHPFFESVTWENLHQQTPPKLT
Procedure, shortened: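 Inhibition is derived by 4-parameter fitting of ΔmP from an IMAP fluorescence polarization read of FAM-crosstide (100 nM) phosphorylation. The cascade ran 30 min at 25 °C with 40 μM ATP, using insect-cell GST-PDK1 51-359 (0.75 nM) driving 10 nM unphosphorylated AKT2 140-467-PIFtide fusion.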

| Compound | EC50 ([1]; Homo sapiens) | IC50 (PDK1) | EC50 ([1]; Homo sapiens, PC-3, 2 h) | EC50 [1] |
| --- | --- | --- | --- | --- |
| C[C@H](NC(=O)c1cccnc1NCc1ccc(-c2cn(C3CCC3)c3ncnc(N)c23)s1)c1ccc(F)cc1 [Example 345] | – | 100 to 1000 nM | < 1000 nM | – |
| C[C@H](NC(=O)c1cc(C#N)cnc1NCc1ccc(-c2cnc(N)c(C(=O)NCC(O)CO)n2)cc1)c1ccc(F)cc1 (stereo partly drawn) [Example 347, 3-amino-6-(4-((5-cyano-3-((S)-1-(4-fluorophenyl)ethylcarbamoyl)pyridin-2-ylamino)methyl)phenyl)-N-(2,3-dihydroxypropyl) pyrazine-2-carboxamide] | – | < 100 nM | – | < 1000 nM |
| Nc1n[nH]c2ncc(-c3ccc(CNc4ncc(C(F)(F)F)cc4-c4nc5cc(F)ccc5o4)cc3)cc12 [Example 348, 5-(4-((3-(5-fluorobenzo[d]oxazol-2-yl)-5-(trifluoro-methyl)pyridin-2-ylamino)methyl)phenyl)-1H-pyrazolo [3,4-b]pyridin-3-amine] | > 10000 nM | > 5000 nM | – | – |
| C[C@H](NC(=O)c1nc(C#N)cnc1N[C@@H](CO)c1ccc(-c2cnc3[nH]nc(N)c3c2)cc1)c1ccc(F)c(F)c1 [Example 351, 3-((R)-1-(4-(3-amino-1H-pyrazolo[3,4-b]pyridin-5-yl)phenyl)-2-hydroxy-ethylamino)-6-cyano-N-((S)-1-(3,4-difluorophenyl)ethyl)pyrazine-2-carboxamide] | > 10000 nM | 1000 to 5000 nM | – | – |
| Cn1cnc2cnc3ccc(-c4ccc(CNc5ncccc5C(=O)NCc5cncc(F)c5)s4)cc3c21 [Example 354, N-((5-fluoropyridin-3-yl)methyl)-2-((5-(1-methyl-1H-imidazo[4,5-c]quinolin-8-yl)thiophen-2-ylmethyl)amino)nicotinamide] | < 1000 nM | < 100 nM | – | – |
| Cc1cc(-c2ccc(CNc3ncc(C(F)(F)F)cc3C(=O)NCc3ccc(F)c(F)c3)cc2)cnc1N [Example 355, 2-(4-(6-amino-5-methylpyridin-3-yl)benzylamino)-N-(3,4-difluorobenzyl)-5-(trifluoromethyl)nicotinamide] | 1000 to 10000 nM | < 100 nM | – | – |
| N#Cc1cnc(NCc2ccc(-c3cnc4[nH]c(=O)[nH]c4c3)cc2)c(C(=O)NCc2ccc(F)c(F)c2)c1 [Example 356, 5-cyano-N-(3,4-difluorobenzyl)-2-(4-(2-oxo-2,3-dihydro-1H-imidazo[4,5-b]pyridin-6-yl)benzylamino)nicotinamide] | < 1000 nM | < 100 nM | – | – |
| C[C@H](NC(=O)c1cc(C#N)cnc1NCc1ccc(-c2cnc3[nH]c(=O)[nH]c3c2)cc1)c1ccc(F)c(F)c1 [Example 361, (S)-5-cyano-N-(1-(3,4-difluorophenyl)ethyl)-2-(4-(2-oxo-2,3-dihydro-1H-imidazo[4,5-b]pyridin-6-yl)benzylamino) nicotinamide] | < 1000 nM | < 100 nM | – | – |
| C[C@H](NC(=O)c1nc(C#N)cnc1NCc1ccc(-c2cnc3[nH]c(=O)[nH]c3c2)cc1)c1ccc(F)c(F)c1 [Example 363, (S)-6-cyano-N-(1-(3,4-difluorophenyl)ethyl)-3-(4-(2-oxo-2,3-dihydro-1H-imidazo[4,5-b]pyridin-6-yl)benzylamino)-pyrazine-2-carboxamide] | < 1000 nM | < 100 nM | – | – |
| N#Cc1cnc(NCc2ccc(-c3cnc4[nH]c(=O)[nH]c4c3)cc2)c(C(=O)NCc2ccc(F)cc2)n1 [Example 365, 6-cyano-N-(4-fluorobenzyl)-3-(4-(2-oxo-2,3-dihydro-1H-imidazo[4,5-b]pyridin-6-yl)benzylamino)pyrazine-2-carboxamide] | < 1000 nM | < 100 nM | – | – |
| C[C@H](NC(=O)c1cccnc1NCc1ccc(-c2cnc3[nH]c(=O)[nH]c3c2)cc1)c1ccc(F)c(F)c1 [Example 366, (S)-N-(1-(3,4-difluorophenyl)ethyl)-2-(4-(2-oxo-2,3-dihydro-1H-imidazo[4,5-b]pyridin-6-yl)benzylamino) nicotinamide] | < 1000 nM | < 100 nM | – | – |
| N#Cc1cnc(NCc2ccc(-c3ccc(N)nc3)cc2)c(C(=O)NCc2ccc(F)c(F)c2)c1 [Example 368, 2-(4-(6-aminopyridin-3-yl)benzylamino)-5-cyano-N-(3,4-difluorobenzyl) nicotinamide] | < 1000 nM | < 100 nM | – | – |
| Nc1ccc(-c2ccc(CNc3ncc(C(F)(F)F)cc3C(=O)NCc3ccc(F)c(F)c3)cc2)cn1 [Example 370, 2-(4-(6-aminopyridin-3-yl)benzylamino)-N-(3,4-difluorobenzyl)-5-(trifluoro-methyl)nicotinamide] | 1000 to 10000 nM | < 100 nM | – | – |

Further lines, results first:

| EC50 ([1]; Homo sapiens) | IC50 (PDK1) | EC50 ([1]; Homo sapiens, PC-3, 2 h) | EC50 [1] | Compound |
| --- | --- | --- | --- | --- |
| > 10000 nM | > 5000 nM | – | – | CNC(=O)c1cc(S(=O)(=O)NCCN)cnc1NCc1ccc(-c2ccc3ncnc(N)c3c2)s1 [Example 344] |
| – | 100 to 1000 nM | < 1000 nM | – | C[C@H](NC(=O)c1cccnc1NCc1ccc(-c2cn(C3CCC3)c3ncnc(N)c23)cc1)c1ccc(F)cc1 [Example 346, (S)-2-(4-(4-amino-7-cyclobutyl-7H-pyrrolo [2,3-d]pyrimidin-5-yl)benzylamino)-N-(1-(4-fluorophenyl)ethyl)nicotinamide] |
| > 10000 nM | > 5000 nM | – | – | Nc1n[nH]c2ncc(-c3ccc(CNc4ncc(C(F)(F)F)cc4-c4nc5cc(F)ccc5[nH]4)cc3)cc12 [Example 349, 5-(4-((3-(5-fluoro-1H-benzo[d]imidazol-2-yl)-5-(trifluoromethyl)pyridin-2-ylamino)methyl)phenyl)-1H-pyrazolo[3,4-b] pyridin-3-amine] |
| > 10000 nM | < 100 nM | – | – | N#Cc1cnc(NCc2ccc(-c3c[nH]c4ncnc(N)c34)cc2)c(-c2nccs2)c1 [Example 352] |
| < 1000 nM | < 100 nM | – | – | C[C@H](NC(=O)c1nc(C#N)cnc1N[C@H](CO)c1ccc(-c2cnc3[nH]nc(N)c3c2)cc1)c1ccc(F)c(F)c1 [Example 353, 3-((S)-1-(4-(3-amino-1H-pyrazolo[3,4-b]pyridin-5-yl)phenyl)-2-hydroxy-ethylamino)-6-cyano-N-((S)-1-(3,4-difluorophenyl)ethyl)pyrazine-2-carboxamide] |
| < 1000 nM | < 100 nM | – | – | C[C@H](NC(=O)c1nccnc1NCc1ccc(-c2cnc3[nH]c(=O)[nH]c3c2)cc1)c1ccc(F)cc1 [Example 357, (S)-N-(1-(4-fluorophenyl)ethyl)-3-(4-(2-oxo-2,3-dihydro-1H-imidazo[4,5-b]pyridin-6-yl)benzylamino) pyrazine-2-carboxamide] |
| < 1000 nM | < 100 nM | – | – | N#Cc1cnc(NCc2ccc(-c3cnc4[nH]c(=O)[nH]c4c3)cc2)c(C(=O)NCc2ccc(F)cc2)c1 [Example 358, 5-cyano-N-(4-fluorobenzyl)-2-(4-(2-oxo-2,3-dihydro-1H-imidazo[4,5-b]pyridin-6-yl)benzylamino)nicotinamide] |
| < 1000 nM | < 100 nM | – | – | C[C@H](NC(=O)c1cccnc1NCc1ccc(-c2cnc3[nH]c(=O)[nH]c3c2)cc1)c1ccc(F)cc1 [Example 359, (S)-N-(1-(4-fluorophenyl)ethyl)-2-(4-(2-oxo-2,3-dihydro-1H-imidazo[4,5-b]pyridin-6-yl)benzylamino) nicotinamide] |
| < 1000 nM | < 100 nM | – | – | O=C(NCc1ccc(F)cc1)c1cccnc1NCc1ccc(-c2cnc3[nH]c(=O)[nH]c3c2)cc1 [Example 360, N-(4-fluorobenzyl)-2-(4-(2-oxo-2,3-dihydro-1H-imidazo [4,5-b]pyridin-6-yl)benzyl-amino)nicotinamide] |
| < 1000 nM | < 100 nM | – | – | C[C@H](NC(=O)c1cc(C(F)(F)F)cnc1NCc1ccc(-c2cnc3[nH]c(=O)[nH]c3c2)cc1)c1ccc(F)c(F)c1 [Example 362, (S)-N-(1-(3,4-difluorophenyl)ethyl)-2-(4-(2-oxo-2,3-dihydro-1H-imidazo[4,5-b]pyridin-6-yl)benzylamino)-5-(trifluoromethyl)nicotinamide] |
| < 1000 nM | < 100 nM | – | – | N#Cc1cnc(NCc2ccc(-c3cnc4[nH]c(=O)[nH]c4c3)cc2)c(C(=O)NCc2ccc(F)c(F)c2)n1 [Example 364, 6-cyano-N-(3,4-difluorobenzyl)-3-(4-(2-oxo-2,3-dihydro-1H-imidazo[4,5-b]pyridin-6-yl)benzylamino)pyrazine-2-carboxamide] |
| < 1000 nM | < 100 nM | – | – | C[C@H](NC(=O)c1cc(C#N)cnc1NCc1ccc(-c2ccc(N)nc2)cc1)c1ccc(F)c(F)c1 [Example 367, (S)-2-(4-(6-aminopyridin-3-yl)benzylamino)-5-cyano-N-(1-(3,4-difluorophenyl)ethyl) nicotinamide] |
| 1000 to 10000 nM | < 100 nM | – | – | C[C@H](NC(=O)c1cccnc1NCc1ccc(-c2ccc(N)nc2)cc1)c1ccc(F)c(F)c1 [Example 369, (S)-2-(4-(6-aminopyridin-3-yl)benzylamino)-N-(1-(3,4-difluorophenyl)ethyl) nicotinamide] |
| > 10000 nM | < 100 nM | – | – | C[C@H](NC(=O)c1nccnc1NCc1ccc(-c2ccc(N)nc2)cc1)c1ccc(F)cc1 [Example 371, (S)-3-(4-(6-aminopyridin-3-yl)benzylamino)-N-(1-(4-fluorophenyl)ethyl)pyrazine-2-carboxamide] |
| 1000 to 10000 nM | < 100 nM | – | – | N#Cc1cnc(NCc2ccc(-c3ccc(N)nc3)cc2)c(C(=O)NCc2ccc(F)c(F)c2)n1 [Example 372, 3-(4-(6-aminopyridin-3-yl)benzylamino)-6-cyano-N-(3,4-difluorobenzyl)pyrazine-2-carboxamide] |
